These results are taken from US12213955B2 (priority 2017, dated 2025).

Read-outs that look alike come from different tables or passages of the source.

For data set [1], the system named is MERS-CoV. In kind it is cell-based, MERS-CoV (HCoV-EMC/2012).
Data set [2] has as its system MERS-CoV. Briefly: microbe, parasite or virus in culture. It counts as cell-based.
Data set [3] relates to MERS-CoV. In kind it is cell-based, MERS-CoV (HCoV-EMC/2012). The source holds these as a separate data set.
Data set [4] concerns MERS-CoV nucleoprotein (NP). It counts as cell-based.
Data set [5] deals with MERS-CoV. It counts as cell-based.
For data set [6], the system named is MERS-CoV. It counts as cell-based. The source holds these as a separate data set.
The subject of data set [7] is MERS-CoV. It counts as cell-based. The source holds these as a separate data set.
Data set [8] relates to TNF-α, IL-1β, IL-8. In kind it is cell-based, human.
Data set [9] relates to MERS-CoV. It counts as cell-based. This is another data set of the same source.
The subject of data set [10] is MERS-CoV. In kind it is cell-based. The source holds these as a separate data set.
Data set [11] concerns MERS-CoV. To be noted: mouse, in vivo.
Data set [12] concerns MERS-CoV. In kind it is cell-based, MERS-CoV (HCoV-EMC/2012). This is another data set of the same source.
Data set [13] relates to SARS-CoV. It counts as cell-based, SARS-CoV (GZ50).
Data set [14] relates to Zika virus (ZIKV). In kind it is cell-based, ZIKV (Puerto Rico strain PRVABC59).
The subject of data set [15] is enterovirus-A71 (EV-A71). In kind it is cell-based, Enterovirus A71 (SZ/HK08-5).
Data set [16] concerns human adenovirus type 5 (AdV5). It counts as cell-based.
In data set [17] the test system is Influenza A(H7N9) virus. To be noted: mouse, in vivo.
Data set [18] relates to MERS-CoV. It counts as cell-based. The source holds these as a separate data set.
The test system of data set [19] is TK, CMV and SV40 promoters. In kind it is cell-based.
Data set [20] deals with MERS-CoV. In kind it is cell-based. This is another data set of the same source.
The test system of data set [21] is Calu-3 cells. In kind it is cell-based, human.
For data set [22], the system named is Huh7 cells. It counts as cell-based, human.
Data set [23] has as its system fatty acid and cholesterol synthesis genes. In kind it is cell-based, human.
Data set [24] concerns MERS-CoV. It counts as cell-based. This is another data set of the same source.
For data set [25], the target named is T1, n-SREBP1 (Homo sapiens, UniProt P36956).
T1 construct: requires cleavage of pre-SREBPs to release the nuclear form (n-SREBPs); endogenous in cells; host or cells: Huh7 nuclear extract
T1 sequence (P36956 1-490 limits assumed): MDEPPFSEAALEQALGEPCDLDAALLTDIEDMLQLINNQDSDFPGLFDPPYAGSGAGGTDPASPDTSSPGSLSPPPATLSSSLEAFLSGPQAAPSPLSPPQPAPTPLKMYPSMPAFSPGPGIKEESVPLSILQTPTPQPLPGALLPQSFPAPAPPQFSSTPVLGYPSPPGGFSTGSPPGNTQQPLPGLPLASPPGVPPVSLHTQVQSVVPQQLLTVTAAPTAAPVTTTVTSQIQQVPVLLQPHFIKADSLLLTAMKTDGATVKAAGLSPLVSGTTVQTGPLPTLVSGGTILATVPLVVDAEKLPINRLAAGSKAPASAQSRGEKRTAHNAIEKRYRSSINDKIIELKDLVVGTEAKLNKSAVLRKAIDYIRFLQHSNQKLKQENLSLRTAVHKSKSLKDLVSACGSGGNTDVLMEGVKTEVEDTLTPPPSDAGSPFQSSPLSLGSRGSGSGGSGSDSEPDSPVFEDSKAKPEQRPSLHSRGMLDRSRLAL
Briefly: SREBP1 DNA (SRE) binding activity assay. In kind it is biochemical.

Data set [26] has as its target T2, n-SREBP2 (Homo sapiens, UniProt Q12772).
T2 construct: requires cleavage of pre-SREBPs to release the nuclear form (n-SREBPs); endogenous in cells; Huh7 in the sister assay
T2 sequence (Q12772 1-484 limits assumed): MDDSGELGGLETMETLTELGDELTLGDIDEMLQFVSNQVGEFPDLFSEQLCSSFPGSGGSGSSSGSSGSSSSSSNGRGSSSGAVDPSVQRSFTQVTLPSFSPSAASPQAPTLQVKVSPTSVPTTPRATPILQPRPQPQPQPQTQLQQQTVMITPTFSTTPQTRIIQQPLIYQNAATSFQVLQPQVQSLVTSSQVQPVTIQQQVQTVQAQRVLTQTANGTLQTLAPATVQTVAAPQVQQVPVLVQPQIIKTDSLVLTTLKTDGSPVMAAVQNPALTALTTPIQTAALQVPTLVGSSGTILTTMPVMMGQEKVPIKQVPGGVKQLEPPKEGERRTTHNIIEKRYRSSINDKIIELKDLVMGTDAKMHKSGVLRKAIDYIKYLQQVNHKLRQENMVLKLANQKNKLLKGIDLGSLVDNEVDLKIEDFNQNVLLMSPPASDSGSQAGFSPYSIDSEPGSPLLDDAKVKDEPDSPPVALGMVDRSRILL
Briefly: SREBP2 DNA (SRE) binding activity assay. In kind it is biochemical. To be noted: dose-dependent.

In data set [27] the test system is HMGCS promoter. In kind it is cell-based, hamster.
Data set [28] has as its system FAS-promoter. It counts as cell-based.
For data set [29], the system named is MERS-CoV. In kind it is cell-based. The source holds these as a separate data set.
In data set [30] the test system is double-membrane vesicles (DMVs). In kind it is cell-based, African green monkey.
Data set [31] concerns hemagglutinin (HA).
In data set [32] the test system is different cell lines.
The conditions of data set [33]: mouse models, reported [43]; cited from earlier work.
Data set [34] relates to MERS-CoV. It counts as cell-based. This is another data set of the same source.
Data set [35] relates to MERS-CoV. It counts as cell-based. The source holds these as a separate data set.
The mark [36] stands for this setting: Middle East respiratory syndrome-related coronavirus, read-out: IC50 anti-MERS-CoV activity.

As to `C=C1CC[C@H](O)C/C1=C/C=C1\CCC[C@]2(C)[C@@H]([C@H](C)CCCC(C)(C)O)CC[C@@H]12` [25-Hydroxyvitamin D3], the “cell protection against MERS-CoV infection” value in data set [1] is given as “protected Huh7 cells against MERS-CoV infection”.

The term IC50 denotes the concentration at which inhibition is half-maximal. With `C=C(c1ccc(C(=O)O)cc1)c1cc2c(cc1C)C(C)(C)CCC2(C)C` [bexarotene], in data set [2] (setting [36]), the IC50 was determined as 875 ± 15 nM.

As to `CC1(C)CCC(C)(C)c2cc(NC(=O)c3ccc(C(=O)O)cc3)ccc21` [Tamibarotene], the IC50 in data set [2] (setting [36]) was 320 ± 26 nM.

The CC50 is the concentration at which the toxic effect on the cells reaches its halfway point. Lower therefore signals greater toxicity to the cells. As for `CC1(C)CCC(C)(C)c2cc(C(=O)Nc3ccc(C(=O)O)cc3)ccc21` [AM580], the “cell protection against MERS-CoV infection” value in [1] is recorded as “protected cells against infection”. For the same compound, the “reduction of viral titer in the cell supernatant” value in [3] was above 3 logs. The “expression of MERS-CoV nucleoprotein (NP)” value in data set [4] is “dramatically decreased”. In addition, in data set [5], the “MERS-CoV NP-positive cells” value stood at 5.38%. For the same compound, the “immunofluorescence staining for MERS-CoV NP” value in data set [6] is “near-complete suppression of virus infection”. Moreover, the “MERS-CoV replication in multiple cell types” value in [7] is listed as “reduce MERS-CoV replication in multiple cell types”. Besides, the “virus-induced pro-inflammatory cytokine activation” value in data set [8] is recorded as “suppress virus-induced pro-inflammatory cytokine activation”. The IC50 in [2] (read-out: IC50 against MERS-CoV infection) is below 1000 nM. In addition, in data set [9], the “PFU in intestinoid culture supernatant” value is “no PFU were detectable”, the “expression of viral NP in intestinoids” value was “markedly decreased expression of viral NP” and the “reduction of viral titer relative to DMSO-treated control intestinoids” value was “approximately 6 log10 PFU/ml”. For the same compound, in [10], the “MERS-CoV NP expression in epithelial cells of terminal bronchioles” value was “marked reduction in MERS-CoV NP expression”. Moreover, in [11], the “alveolar damage and interstitial inflammatory infiltration in lung tissues” value is given as “significantly improved”; the “mean body weight vs DMSO-treated control mice” value is “generally higher”; the “reduction of viral RNA content of brain tissues vs DMSO-treated control” value amounted to 4 log10; the “viral RNA content in lung tissues vs DMSO-treated control” value was “significantly (p<0.01) lower”. The compound further displayed a survival in data set [11] (ip, 12.5 mg/kg/day) of 100%. The “selectivity index (CC50/IC50)” value in data set [12] is listed as 507. For the same compound, in data set [13], the “concentrations inhibiting replication of SARS-CoV” value is listed as “nanomolar to low micromolar” and the “selectivity index (CC50/IC50)” value came out at 114. In data set [14], the “concentrations inhibiting replication of ZIKV” value is “nanomolar to low micromolar”. The “concentrations inhibiting replication of EV-A71” value in data set [15] is listed as “nanomolar to low micromolar”. The “concentrations inhibiting replication of AdV5” value in data set [16] is recorded as “nanomolar to low micromolar”. Further, in data set [17], the lung histopathology result is “ameliorated virus-associated pulmonary inflammatory infiltration and bronchopneumonia”; the mean body weight result is listed as “gradually rebounded starting on day 8 post-challenge”; the “mean viral RNA load in lung tissues vs DMSO-treated control” value is “significantly (p<0.01) lower”; the survival rate worked out at 60%. Moreover, the “antiviral potency of AM580 with RAR-α antagonist ER50891” value in data set [18] is “did not diminish the antiviral potency”. The “transactivation of TK, CMV and SV40 promoters” value in [19] is recorded as “did not inhibit transactivation of promoters”. For the same compound, the “MERS-CoV attachment or internalization” value in data set [20] is “did not interfere with MERS-CoV attachment or internalization”. Also, the “virus-induced perturbation of lipid homeostasis (lipidome)” value in data set [21] is “antagonized this virus-induced perturbation of lipid homeostasis”. For the same compound, the “accumulation of lipid droplets and cholesterol” value in [22] was “significantly reduced their production”. Moreover, in data set [23], the “cholesterol synthetic pathway genes with reduced mRNA expression (10/12)” value was found to be 83.3% and the “fatty acid metabolism genes with significant decreases in mRNA expression (13/17)” value is 76.5%. Also, the “loss of antiviral potency with increased n-SREBPs” value in [24] is recorded as “about 1 log10 unit”. The “binding of n-SREBP1 with its SRE” value in data set [25] (Huh7 nuclear extraction, 20 μM) is listed as “inhibited binding”. The “binding partner: n-SREBP1 or SRE (pre-incubation)” value in data set [25] (pre-incubation 2 h) is listed as “bind with n-SREBP1 rather than SRE”. The “binding of n-SREBP2 with its SRE” value in data set [26] is listed as “inhibited binding”. Further, the “HMGCS-promoter-Luc reporter gene activity” value in data set [27] is recorded as “concentration-dependent inhibition”. For the same compound, the “FAS-promoter-Luc reporter gene activity” value in data set [28] was “concentration-dependent inhibition”. Moreover, in data set [29], the “anti-MERS-CoV activity (viral yield)” value was “showed anti-MERS-CoV activity” and the “virus yield on addition of sodium palmitate” value is recorded as “increased the virus yield”. The DMV formation entry in data set [30] is reported as “no DMVs were noted”. Also, in data set [31], the palmitoylated-HA level entry is on record as “Reduced levels of palmitoylated-HA” and the “total HA protein” value was “no impact on protein synthesis”. Also, the CC50 in data set [32] is 100 to 200 µM. Moreover, in data set [33], the teratogenicity entry is “teratogenic effects”.

PF429242: the “reduction in viral titer” value in data set [34] is “about 1 log PFU/ml”.

For the compound `C=C(C)[C@@H]1CC[C@]2(CO)CC[C@]3(C)[C@H](CC[C@@H]4[C@@]5(C)CC[C@H](O)C(C)(C)[C@@H]5CC[C@]43C)[C@@H]12` [betulin], the “reduction in viral titer” value in [34] is “about 1 log PFU/ml”.

As to `CCCCCCCCCCCCCCC(Br)C(=O)O` (stereo not shown) [2-BP], in data set [31], the palmitoylated-HA level entry was “Reduced levels of palmitoylated-HA” and the “total HA protein” value is given as “no impact on protein synthesis”. For the same compound, the MERS-CoV replication entry in data set [35] is reported as “inhibited MERS-CoV replication in a dose-dependent manner”.
